In publication PMC11859905, “Flavonoids as Potential Modulators of Pancreatic Lipase Catalytic Activity” (Pharmaceutics, 2025):
Read-outs that look alike come from different tables or passages of the source.

Assays:
[1] = target: T1, porcine pancreatic lipase (Sus scrofa, UniProt P00591); design: compare it to the effects of the porcine pancreas (type II, EC 3.1.1.3); from tissue; host or cells: porcine pancreas (type II preparation); settings: not calculated in this paper; cited from earlier work
T1 sequence (P00591 1-450): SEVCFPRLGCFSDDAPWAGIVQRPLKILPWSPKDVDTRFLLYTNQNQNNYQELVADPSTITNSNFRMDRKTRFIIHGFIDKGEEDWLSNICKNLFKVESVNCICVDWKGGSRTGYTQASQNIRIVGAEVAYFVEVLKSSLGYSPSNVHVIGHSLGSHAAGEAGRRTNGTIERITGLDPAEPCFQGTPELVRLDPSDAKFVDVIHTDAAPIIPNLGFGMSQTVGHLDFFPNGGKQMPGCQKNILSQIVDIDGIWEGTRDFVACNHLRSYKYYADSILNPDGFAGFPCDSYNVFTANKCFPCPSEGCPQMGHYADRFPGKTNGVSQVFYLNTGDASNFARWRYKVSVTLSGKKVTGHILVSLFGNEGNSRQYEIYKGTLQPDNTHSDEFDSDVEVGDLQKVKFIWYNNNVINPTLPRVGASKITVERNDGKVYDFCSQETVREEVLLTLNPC

[2] = target: T1, porcine pancreatic lipase; test: In vitro assay using porcine pancreatic lipase (4-MUO hydrolysis, fluorometric);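 further: product 4-methylumbeliferone formation tracked fluorometrically, catalytic rate from RFU slope over the 10–30 min window, compounds checked beforehand for own fluorescence, at least three independent experiments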
human pancreatic lipase [3] = target: T2, human pancreatic lipase (Homo sapiens, UniProt P16233); test: In vitro assay using human pancreatic lipase (4-MUO hydrolysis, fluorometric); type: biochemical; settings: for IC50: human PL 2 U/mL, 4-MUO 0.05 mM, mean ± SEM;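 on all read-outs here: Read-out is the initial rate of fluorescent 4-MU release as HPL cleaves the 4-MUO substrate, a rate that scales with the amount of enzyme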
T2 construct: PL from the human pancreas (triacylglycerol acyl hydrolase, EC 3.1.1.3); from tissue; host or cells: human pancreas
T2 sequence (P16233 17-465): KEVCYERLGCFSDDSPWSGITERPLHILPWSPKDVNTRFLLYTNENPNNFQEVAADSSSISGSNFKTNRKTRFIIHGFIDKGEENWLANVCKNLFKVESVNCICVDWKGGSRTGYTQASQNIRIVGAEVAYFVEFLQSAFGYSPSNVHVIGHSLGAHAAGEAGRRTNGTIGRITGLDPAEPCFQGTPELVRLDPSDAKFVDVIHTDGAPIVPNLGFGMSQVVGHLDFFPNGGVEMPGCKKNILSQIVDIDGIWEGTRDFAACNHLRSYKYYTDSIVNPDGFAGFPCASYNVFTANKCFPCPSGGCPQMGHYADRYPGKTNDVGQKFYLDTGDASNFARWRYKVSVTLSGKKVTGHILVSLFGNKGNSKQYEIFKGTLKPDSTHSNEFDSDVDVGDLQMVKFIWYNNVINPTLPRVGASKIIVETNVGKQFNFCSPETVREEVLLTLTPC

human pancreatic lipase [4] = target: T2, human pancreatic lipase; test: Inhibition kinetics of human pancreatic lipase (nonlinear regression, Solver); type: biochemical
[5] = target: T1, porcine pancreatic lipase; test: Inhibition kinetics of porcine pancreatic lipase (nonlinear regression, Solver); type: biochemical; design: compare it to the effects of the porcine pancreas (type II, EC 3.1.1.3); from tissue; host or cells: porcine pancreas (type II preparation); settings: for Ki / Inhibition Model / Vmax: porcine pancreatic lipase; for Ki / Vmax: ± SEM; for Vmax: in µmol/min
[6] = competitive constant, read-out: Kic

| IC50 [2] [µM] | Ki [5, 6] [µM] | Ki (human pancreatic lipase [4]; human pancreatic lipase, first Kic column of Table 4, ± SEM) [µM] | Vmax (human pancreatic lipase [4]; human pancreatic lipase, ± SEM) | potency against HPL from Kic, times higher than 38 (myricetin) (human pancreatic lipase [4]; versus 38) | Inhibition Model [5] | Vmax [5] | binding affinity to PPL, times higher than the other compounds (from Kic) ([5]; versus 38, 27 and 41) | inhibition at 100 µM (human pancreatic lipase [3]; at 100 μM, read-out: PL Inhibition (%) ± SEM, Human) [%] | SMILES | type of PL inhibition [1] | IC50 (human pancreatic lipase [3]) [µM] | Inhibition Model (human pancreatic lipase [4]; human pancreatic lipase) | Ki ([5]; uncompetitive constant, read-out: Kiu) [µM] |
| --- | --- | --- | --- | --- | --- | --- | --- | --- | --- | --- | --- | --- | --- |
|  |  |  |  |  |  |  |  |  | CCCCCCCCCCC[C@@H](C[C@@H]1OC(=O)[C@H]1CCCCCC)OC(=O)[C@H](CC(C)C)NC=O [Orlistat] | irreversible |  |  |  |
| 7.3 ± 0.6 | 1.78 ± 0.04 | 1.3 ± 0.3 | 260 ± 10 | approximately 60 | Competitive | 507 ± 4 | approximately 10 |  | CCCCCCCCCCc1c(-c2ccc(O)c(O)c2)oc2cc(O)cc(O)c2c1=O [Flavonoid 30] |  | 3.2 ± 0.1 | mixed-type |  |
| 32 ± 4 | 21 ± 3 |  |  |  | Competitive | 680 ± 7 |  | < 30 | O=C(O[C@@H]1Cc2c(O)cc(O)cc2O[C@@H]1c1cc(O)c(O)c(O)c1)c1cc(O)c(O)c(O)c1 [Flavonoid 41, (–)-Epigallocatechin gallate] |  |  |  |  |

| SMILES | IC50 [2] [µM] | Ki [5, 6] [µM] | Ki (human pancreatic lipase [4]; human pancreatic lipase, first Kic column of Table 4, ± SEM) [µM] | Vmax (human pancreatic lipase [4]; human pancreatic lipase, ± SEM) | potency against HPL from Kic, times higher than 38 (myricetin) (human pancreatic lipase [4]; versus 38) | Inhibition Model [5] | Vmax [5] | binding affinity to PPL, times higher than the other compounds (from Kic) ([5]; versus 38, 27 and 41) | inhibition at 100 µM (human pancreatic lipase [3]; at 100 μM, read-out: PL Inhibition (%) ± SEM, Human) [%] | type of PL inhibition [1] | IC50 (human pancreatic lipase [3]) [µM] | Inhibition Model (human pancreatic lipase [4]; human pancreatic lipase) | Ki ([5]; uncompetitive constant, read-out: Kiu) [µM] |
| --- | --- | --- | --- | --- | --- | --- | --- | --- | --- | --- | --- | --- | --- |
| O=c1c(O)c(-c2cc(O)c(O)c(O)c2)oc2cc(O)cc(O)c12 [Flavonoid 38, Myricetin] | 16 ± 1 | 12 ± 0.8 |  |  |  |  |  |  |  |  | 25 ± 2 | Noncompetitive | 58 ± 3 |
